Source: ChEMBL document CHEMBL1201862, “PubChem BioAssay data set” (2004)
Activity calls are given as the source filed them.

Tests used:
cells [1] = assay type: functional, cell-based
cells [2] = assay type: functional, cell-based; remark: listed apart in the source
[3] = M. tuberculosis H37Rv growth inhibitors, H37Rv strain (AID 1626); assay type: functional
Estrogen receptor beta [4] = target: T1, Estrogen receptor beta (Homo sapiens, UniProt Q92731);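 further: recombinant ER-beta bound to coactivator SRC1 peptide in presence of estradiol agonist; inhibitors block coactivator peptide binding and lower the FRET signal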
T1 sequence (Q92731 whole entry): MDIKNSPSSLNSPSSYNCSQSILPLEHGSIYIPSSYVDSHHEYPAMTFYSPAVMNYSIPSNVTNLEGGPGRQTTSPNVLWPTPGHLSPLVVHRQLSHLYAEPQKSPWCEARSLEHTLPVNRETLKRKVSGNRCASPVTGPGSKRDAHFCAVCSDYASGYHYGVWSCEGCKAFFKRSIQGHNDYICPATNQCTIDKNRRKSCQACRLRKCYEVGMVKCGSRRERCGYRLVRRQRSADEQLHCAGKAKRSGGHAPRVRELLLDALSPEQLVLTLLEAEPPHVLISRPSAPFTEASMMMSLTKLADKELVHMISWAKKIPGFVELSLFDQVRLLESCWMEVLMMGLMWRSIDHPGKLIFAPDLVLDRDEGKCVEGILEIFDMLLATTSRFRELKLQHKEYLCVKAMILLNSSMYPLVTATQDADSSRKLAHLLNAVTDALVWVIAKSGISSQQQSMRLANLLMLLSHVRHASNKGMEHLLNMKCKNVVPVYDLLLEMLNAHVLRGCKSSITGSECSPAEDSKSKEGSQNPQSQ

Estrogen receptor beta [5] = target: T1, Estrogen receptor beta; assay: ERβ–SRC-3 coactivator interaction inhibitors, confirmation, orthogonal assay, biochemical, ELISA, streptavidin-HRP readout (AID 1060)
[6] = target: T2, Mannose-6-phosphate isomerase (Homo sapiens, UniProt P34949); assay: human PMI inhibitors, high substrate, primary screen, biochemical, fluorescence intensity, high mannose 6-phosphate (AID 1220)
T2 sequence (P34949 whole entry): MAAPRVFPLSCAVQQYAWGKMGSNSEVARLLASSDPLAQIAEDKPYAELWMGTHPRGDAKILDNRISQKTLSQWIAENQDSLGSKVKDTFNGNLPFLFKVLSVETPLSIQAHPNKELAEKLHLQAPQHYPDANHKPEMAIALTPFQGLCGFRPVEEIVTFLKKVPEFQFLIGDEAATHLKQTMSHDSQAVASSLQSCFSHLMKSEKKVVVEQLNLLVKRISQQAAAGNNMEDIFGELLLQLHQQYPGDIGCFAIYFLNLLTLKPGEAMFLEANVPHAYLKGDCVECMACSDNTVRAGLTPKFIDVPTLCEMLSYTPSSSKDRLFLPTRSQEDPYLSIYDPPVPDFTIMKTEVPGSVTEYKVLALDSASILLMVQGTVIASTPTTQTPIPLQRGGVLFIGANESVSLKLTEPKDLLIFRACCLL

[7] = target: Voltage-dependent T-type calcium channel subunit alpha-1H (Homo sapiens, UniProt O95180); assay type: functional;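 further: channel activity triggered by adding a high calcium stimulation buffer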
Chain of Voltage-dependent T-type calcium channel subunit alpha-1H (O95180 whole entry): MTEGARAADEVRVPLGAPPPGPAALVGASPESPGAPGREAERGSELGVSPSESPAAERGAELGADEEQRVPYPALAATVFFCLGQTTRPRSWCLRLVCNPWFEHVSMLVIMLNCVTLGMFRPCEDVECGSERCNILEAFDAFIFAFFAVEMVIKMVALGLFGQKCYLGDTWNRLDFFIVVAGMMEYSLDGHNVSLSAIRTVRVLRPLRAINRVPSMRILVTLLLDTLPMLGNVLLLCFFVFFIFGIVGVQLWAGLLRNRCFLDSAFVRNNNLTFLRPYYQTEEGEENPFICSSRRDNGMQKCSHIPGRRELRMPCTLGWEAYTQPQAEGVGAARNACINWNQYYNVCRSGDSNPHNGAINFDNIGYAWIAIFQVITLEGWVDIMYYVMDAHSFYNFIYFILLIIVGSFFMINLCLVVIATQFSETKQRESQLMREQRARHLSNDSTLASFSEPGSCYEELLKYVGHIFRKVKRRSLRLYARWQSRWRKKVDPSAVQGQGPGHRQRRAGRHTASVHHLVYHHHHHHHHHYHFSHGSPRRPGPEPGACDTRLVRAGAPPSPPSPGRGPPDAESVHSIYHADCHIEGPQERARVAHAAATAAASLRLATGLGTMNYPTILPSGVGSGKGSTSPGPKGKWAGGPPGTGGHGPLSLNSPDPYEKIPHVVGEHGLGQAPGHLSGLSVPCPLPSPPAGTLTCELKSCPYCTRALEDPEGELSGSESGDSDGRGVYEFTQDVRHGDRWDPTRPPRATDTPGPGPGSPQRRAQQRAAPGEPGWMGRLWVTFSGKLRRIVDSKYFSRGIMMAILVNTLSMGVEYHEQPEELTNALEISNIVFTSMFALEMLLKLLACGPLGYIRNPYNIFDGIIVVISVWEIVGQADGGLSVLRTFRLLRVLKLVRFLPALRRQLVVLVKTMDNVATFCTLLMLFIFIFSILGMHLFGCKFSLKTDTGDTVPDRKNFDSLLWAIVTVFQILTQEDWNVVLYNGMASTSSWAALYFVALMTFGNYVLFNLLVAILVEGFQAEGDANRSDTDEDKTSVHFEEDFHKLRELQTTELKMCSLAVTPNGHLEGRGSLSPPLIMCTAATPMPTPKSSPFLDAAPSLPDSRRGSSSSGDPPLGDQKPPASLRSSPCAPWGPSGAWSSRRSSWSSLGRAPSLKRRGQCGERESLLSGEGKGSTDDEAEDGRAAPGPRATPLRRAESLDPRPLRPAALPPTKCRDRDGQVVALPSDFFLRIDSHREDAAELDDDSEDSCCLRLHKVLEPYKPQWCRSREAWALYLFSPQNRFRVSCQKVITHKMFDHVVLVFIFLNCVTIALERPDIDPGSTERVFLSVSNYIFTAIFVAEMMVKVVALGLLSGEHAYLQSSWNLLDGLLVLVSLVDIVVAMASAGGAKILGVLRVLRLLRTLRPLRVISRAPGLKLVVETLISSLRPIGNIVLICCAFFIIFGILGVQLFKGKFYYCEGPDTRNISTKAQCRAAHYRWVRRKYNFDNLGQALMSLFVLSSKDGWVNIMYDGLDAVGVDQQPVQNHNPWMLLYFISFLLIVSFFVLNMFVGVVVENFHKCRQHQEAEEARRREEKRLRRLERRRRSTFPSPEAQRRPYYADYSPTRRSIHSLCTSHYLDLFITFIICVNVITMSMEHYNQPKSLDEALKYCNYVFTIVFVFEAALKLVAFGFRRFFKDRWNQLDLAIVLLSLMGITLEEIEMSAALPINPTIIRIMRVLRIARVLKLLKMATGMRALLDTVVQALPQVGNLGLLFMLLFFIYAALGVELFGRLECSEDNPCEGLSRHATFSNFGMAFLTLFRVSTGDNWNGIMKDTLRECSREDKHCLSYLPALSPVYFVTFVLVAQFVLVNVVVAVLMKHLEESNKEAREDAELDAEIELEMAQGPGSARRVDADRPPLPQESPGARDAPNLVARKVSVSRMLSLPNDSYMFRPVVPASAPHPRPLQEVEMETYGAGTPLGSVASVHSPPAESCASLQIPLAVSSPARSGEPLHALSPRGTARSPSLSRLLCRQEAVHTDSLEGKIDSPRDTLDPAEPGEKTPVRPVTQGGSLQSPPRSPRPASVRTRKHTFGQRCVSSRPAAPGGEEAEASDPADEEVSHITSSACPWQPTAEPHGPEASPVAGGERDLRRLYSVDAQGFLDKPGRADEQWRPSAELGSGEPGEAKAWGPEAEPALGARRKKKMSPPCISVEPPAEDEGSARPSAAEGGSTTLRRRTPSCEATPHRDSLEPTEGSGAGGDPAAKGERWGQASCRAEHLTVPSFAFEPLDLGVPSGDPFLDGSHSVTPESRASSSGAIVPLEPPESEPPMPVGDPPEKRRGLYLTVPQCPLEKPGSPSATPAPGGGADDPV

[8] = HEK293T cytotoxicity, dose response, cytotoxicity control for miR-122 modulator project, cell-based, inhibitor set, cherry-pick, set 2 (AID 720697); assay type: functional
Protein skinhead-1 = target: T3, Protein skinhead-1 (Caenorhabditis elegans, UniProt P34707); assay type: functional
T3 sequence (P34707 whole entry): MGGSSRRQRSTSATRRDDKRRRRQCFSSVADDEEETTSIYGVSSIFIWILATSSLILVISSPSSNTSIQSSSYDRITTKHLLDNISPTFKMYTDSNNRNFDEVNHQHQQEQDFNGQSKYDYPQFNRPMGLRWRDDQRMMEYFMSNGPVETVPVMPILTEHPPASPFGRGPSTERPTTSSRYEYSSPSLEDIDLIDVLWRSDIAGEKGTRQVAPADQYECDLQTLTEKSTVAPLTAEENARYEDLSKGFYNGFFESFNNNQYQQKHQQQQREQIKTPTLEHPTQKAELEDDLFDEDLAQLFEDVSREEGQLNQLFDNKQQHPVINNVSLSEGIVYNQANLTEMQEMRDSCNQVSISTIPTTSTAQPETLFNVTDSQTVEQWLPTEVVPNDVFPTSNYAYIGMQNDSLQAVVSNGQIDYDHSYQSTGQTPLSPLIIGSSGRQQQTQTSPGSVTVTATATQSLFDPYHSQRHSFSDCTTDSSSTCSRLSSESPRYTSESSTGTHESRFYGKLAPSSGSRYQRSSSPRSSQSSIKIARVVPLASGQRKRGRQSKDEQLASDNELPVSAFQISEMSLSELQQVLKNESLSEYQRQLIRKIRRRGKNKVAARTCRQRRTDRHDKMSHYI

[9] = inhibitors of Vif binding to APOBEC3G peptide, primary screen, biochemical, TR-FRET, GST-Vif 1-94, biotin-A3G peptide, dose response retest (AID 1117319); assay type: functional;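 further: TR-FRET signal of purified GST-Vif binding a biotinylated A3G peptide; inhibitors lower the FRET signal by blocking Vif and A3G binding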
Estrogen receptor = target: T4, Estrogen receptor (Homo sapiens, UniProt P03372);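 further: potency for inhibiting coactivator peptide recruitment to the receptor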
T4 sequence (P03372 whole entry): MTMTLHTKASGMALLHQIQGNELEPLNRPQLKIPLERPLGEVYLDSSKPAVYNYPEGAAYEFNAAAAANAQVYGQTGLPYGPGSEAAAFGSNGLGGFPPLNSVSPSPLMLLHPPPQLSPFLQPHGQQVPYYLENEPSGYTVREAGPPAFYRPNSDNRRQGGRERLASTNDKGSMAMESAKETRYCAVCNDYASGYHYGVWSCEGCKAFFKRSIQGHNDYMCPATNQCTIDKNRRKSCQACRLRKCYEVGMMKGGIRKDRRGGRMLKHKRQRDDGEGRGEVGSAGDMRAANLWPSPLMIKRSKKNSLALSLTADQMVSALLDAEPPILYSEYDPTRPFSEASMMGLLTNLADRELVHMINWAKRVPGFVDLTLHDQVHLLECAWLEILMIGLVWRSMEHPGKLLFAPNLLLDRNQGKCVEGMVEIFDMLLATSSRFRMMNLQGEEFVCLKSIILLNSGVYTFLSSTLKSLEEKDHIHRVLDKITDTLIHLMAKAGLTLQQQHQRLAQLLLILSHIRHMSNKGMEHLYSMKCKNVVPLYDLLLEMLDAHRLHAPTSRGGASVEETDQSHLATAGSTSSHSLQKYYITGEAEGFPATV

[10] = target: Disintegrin and metalloproteinase domain-containing protein 17 (Homo sapiens, UniProt P78536); assay: exosite inhibitors of ADAM17, dose response, biochemical (AID 743260)
Chain of Disintegrin and metalloproteinase domain-containing protein 17 (P78536 whole entry, the tested form may be a part): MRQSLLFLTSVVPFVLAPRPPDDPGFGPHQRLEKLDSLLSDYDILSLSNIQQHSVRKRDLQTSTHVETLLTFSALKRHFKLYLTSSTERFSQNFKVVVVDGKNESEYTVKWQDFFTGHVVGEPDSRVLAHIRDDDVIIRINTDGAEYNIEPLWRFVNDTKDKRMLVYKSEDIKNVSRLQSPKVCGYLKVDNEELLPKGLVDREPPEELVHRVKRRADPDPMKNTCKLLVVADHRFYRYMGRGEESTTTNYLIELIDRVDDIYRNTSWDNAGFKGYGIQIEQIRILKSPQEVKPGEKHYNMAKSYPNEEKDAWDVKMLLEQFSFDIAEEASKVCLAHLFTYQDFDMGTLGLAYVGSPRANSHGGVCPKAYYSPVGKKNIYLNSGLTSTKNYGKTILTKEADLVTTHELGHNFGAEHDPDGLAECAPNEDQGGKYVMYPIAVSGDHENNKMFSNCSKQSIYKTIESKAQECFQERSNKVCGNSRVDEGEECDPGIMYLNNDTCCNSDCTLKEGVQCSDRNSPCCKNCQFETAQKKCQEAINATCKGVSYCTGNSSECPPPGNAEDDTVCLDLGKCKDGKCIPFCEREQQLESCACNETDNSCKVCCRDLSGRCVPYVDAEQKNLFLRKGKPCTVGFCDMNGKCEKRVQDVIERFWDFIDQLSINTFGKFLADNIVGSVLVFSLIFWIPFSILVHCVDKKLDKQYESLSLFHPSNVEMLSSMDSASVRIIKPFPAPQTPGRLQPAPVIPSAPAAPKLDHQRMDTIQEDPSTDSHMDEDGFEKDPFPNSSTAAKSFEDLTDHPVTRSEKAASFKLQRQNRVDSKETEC

[11] = ADAM10 protease inhibitors, dose response, selectivity assay for ADAM17 exosite inhibitor project, biochemical, FRET peptide substrate, recombinant human ADAM10 (AID 743259);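 further: ADAM10 enzyme cleaving a FRET peptide substrate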

For `CC(=O)Nc1ccc(NC(=O)Nc2ccccc2)cc1`, the EC50 (cells [1]) was > 29.9 µM (inactive) and the IC50 (cells [2]) was > 29.9 µM (inactive).

With `COc1ccc(CCNC(=O)c2ccc(CN3CCC(Cc4ccccc4)CC3)cc2)cc1` the IC50 [3] was > 100 µM (active).

In the case of `O=C(Cn1nnc(-c2ccc3c(c2)OCO3)n1)NCc1ccco1`, the IC50 (Estrogen receptor beta [4]) is reported as 19.6 µM (active) and the IC50 (Estrogen receptor beta [5]) is reported as 3 µM (not active).

In the case of `Cc1sc2nc3ccc(N4CCCC4)nn3c(=O)c2c1C`, the IC50 [6] is reported as > 50 µM (not active).

In the case of `O=C(Nc1ccc(Cl)c(C(F)(F)F)c1)c1ccco1`, the EC50 [7] is reported as 10.6 µM (active), the AC50 [8] is reported as 4.01 µM (active) and the IC50 (Protein skinhead-1) is reported as 45 µM (active).

With `CCOC(=O)C1CCCN(C(=O)c2ccc(CS(=O)(=O)c3ccc(Br)cc3)o2)C1` (stereo unspecified) the IC50 [9] was > 100 µM (active).

With `COc1cc(C2C(C#N)=C(N)Oc3cc(C)oc(=O)c32)cc2c1OCO2` (stereo unspecified) the IC50 (Estrogen receptor) was 26.2 µM (active), the IC50 (Estrogen receptor beta [4]) was 13.6 µM (active) and the IC50 (Estrogen receptor beta [5]) was 9.24 µM (not active).

With `CCCCc1cc(=O)oc2cc(C)cc(OC(C)C(=O)O)c12` (stereo unspecified) the AC50 [8] was 1.08 µM (active).

For `Cc1cccc(N2CCN(C(=O)c3ccc(C[S+]([O-])Cc4ccc(Cl)cc4)o3)CC2)c1C` (stereo unspecified), the IC50 [10] was > 69.5 µM (inactive) and the IC50 [11] was > 7.72 µM (active).

For `Cn1c(C(=O)Nc2ccc3c(c2)OCO3)cc2c(=O)n(C)c3ccccc3c21`, the IC50 (Estrogen receptor) was 22.6 µM (active), the IC50 (Estrogen receptor beta [4]) was > 50 µM (not active) and the IC50 (Estrogen receptor beta [5]) was 0.0468 µM (not active).

In the case of `O=C(CSc1nnc(COc2ccccc2)n1-c1ccc(Cl)cc1)Nc1ccccc1-c1ccccc1`, the IC50 [10] is reported as > 69.5 µM (inactive) and the IC50 [11] is reported as > 69.5 µM (inactive).
